{"source": "patent US20110320392A1", "about": "“METHODS FOR PREDICTING CANCER RESPONSE TO EGFR INHIBITORS” (priority 2009, published 2011)", "key": {"[1]": {"tested_on": "HCC827", "assay": "erlotinib sensitivity of validation lung cancer cell line", "type": "cell-based, human", "conditions": "lung cancer cell line HCC827, validation set", "description": "(§1) The panel of NSCLC cell lines were separated into sensitive and resistant to erlotinib treatment using an apoptosis assay after 48 h as a measure (Balko et al., 2006). […] All cell lines were passaged as previously published and harvested after 2 days growth in serum-containing media (Balko et al., 2006). Lung cancer cell lines sensitive to erlotinib (H322 and HCC827) and resistant to erlotinib (H2122 and H820) and pancreatic cancer cell lines sensitive to erlotinib (Aspc-1 and Bxpc-3) and resistant to erlotinib (Mia PaCa-2 and Panc-1) were used for validation of the predictor, as previously described, again harvested after 2 days growth in serum-containing media (Tzeng et al., 2007)."}, "[2]": {"tested_on": "H2122", "assay": "erlotinib sensitivity of validation lung cancer cell line", "type": "cell-based, human", "conditions": "lung cancer cell line H2122, validation set", "description": "as §1"}, "[3]": {"tested_on": "H820", "assay": "erlotinib sensitivity of validation lung cancer cell line", "type": "cell-based, human", "conditions": "lung cancer cell line H820, validation set", "description": "as §1"}, "[4]": {"tested_on": "H322", "assay": "erlotinib sensitivity of validation lung cancer cell line", "type": "cell-based, human", "conditions": "lung cancer cell line H322, validation set", "description": "as §1"}, "[5]": {"tested_on": "Bxpc-3", "conditions": "pancreatic cancer cell line Bxpc-3, validation set (Tzeng et al., 2007); cited from earlier work"}, "[6]": {"tested_on": "PC-9", "assay": "erlotinib sensitivity, apoptosis assay after 48 h", "type": "cell-based, human", "conditions": "NSCLC cell line PC-9, apoptosis assay after 48 h", "description": "(§2) The lung cancer cell lines were analyzed for in vitro sensitivity to the EGFR-tyrosine kinase inhibitor erlotinib. Cell lines were designated as “resistant” or sensitive” based upon an empirically determined threshold.\nas §1"}, "[7]": {"tested_on": "H1975", "assay": "erlotinib sensitivity, apoptosis assay after 48 h", "type": "cell-based, human", "conditions": "NSCLC cell line H1975, apoptosis assay after 48 h", "description": "as §2, §1"}, "[8]": {"tested_on": "H1650", "assay": "erlotinib sensitivity, apoptosis assay after 48 h", "type": "cell-based, human", "conditions": "NSCLC cell line H1650, apoptosis assay after 48 h", "description": "as §2, §1"}, "[9]": {"tested_on": "H460", "assay": "erlotinib sensitivity, apoptosis assay after 48 h", "type": "cell-based, human", "conditions": "NSCLC cell line H460, apoptosis assay after 48 h", "description": "as §2, §1"}, "[10]": {"tested_on": "H358", "assay": "erlotinib sensitivity, apoptosis assay after 48 h", "type": "cell-based, human", "conditions": "NSCLC cell line H358, apoptosis assay after 48 h", "description": "as §2, §1"}, "[11]": {"tested_on": "A549", "assay": "erlotinib sensitivity, apoptosis assay after 48 h", "type": "cell-based, human", "conditions": "NSCLC cell line A549, apoptosis assay after 48 h", "description": "as §2, §1"}, "[12]": {"tested_on": "UKY-29", "assay": "erlotinib sensitivity, apoptosis assay after 48 h", "type": "cell-based, human", "conditions": "NSCLC cell line UKY-29, apoptosis assay after 48 h", "description": "as §2, §1"}, "[13]": {"tested_on": "H3255", "assay": "erlotinib sensitivity, apoptosis assay after 48 h", "type": "cell-based, human", "conditions": "NSCLC cell line H3255, apoptosis assay after 48 h", "description": "as §2, §1"}, "[14]": {"tested_on": "Mia PaCa-2", "conditions": "pancreatic cancer cell line Mia PaCa-2, validation set (Tzeng et al., 2007); cited from earlier work"}, "[15]": {"tested_on": "Panc-1", "conditions": "pancreatic cancer cell line Panc-1, validation set (Tzeng et al., 2007); cited from earlier work"}, "[16]": {"tested_on": "Aspc-1", "conditions": "pancreatic cancer cell line Aspc-1, validation set (Tzeng et al., 2007); cited from earlier work"}}, "data": [{"smiles": "C#Cc1cccc(Nc2ncnc3cc(OCCOC)c(OCCOC)cc23)c1", "note": "[erlotinib]", "values": [{"measurement": "sensitivity to erlotinib", "setting": "[1]", "value": "sensitive"}, {"measurement": "sensitivity to erlotinib", "setting": "[2]", "value": "resistant"}, {"measurement": "sensitivity to erlotinib", "setting": "[3]", "value": "resistant"}, {"measurement": "sensitivity to erlotinib", "setting": "[4]", "value": "sensitive"}, {"measurement": "sensitivity to erlotinib", "setting": "[5]", "value": "sensitive"}, {"measurement": "sensitivity to erlotinib treatment", "setting": "[6]", "value": "sensitive"}, {"measurement": "sensitivity to erlotinib treatment", "setting": "[7]", "value": "Resistant"}, {"measurement": "sensitivity to erlotinib treatment", "setting": "[8]", "value": "sensitive"}, {"measurement": "sensitivity to erlotinib treatment", "setting": "[9]", "value": "Resistant"}, {"measurement": "sensitivity to erlotinib treatment", "setting": "[10]", "value": "sensitive"}, {"measurement": "sensitivity to erlotinib treatment", "setting": "[11]", "value": "Resistant"}, {"measurement": "sensitivity to erlotinib treatment", "setting": "[12]", "value": "Resistant"}, {"measurement": "sensitivity to erlotinib treatment", "setting": "[13]", "value": "sensitive"}, {"measurement": "sensitivity to erlotinib", "setting": "[14]", "value": "resistant"}, {"measurement": "sensitivity to erlotinib", "setting": "[15]", "value": "resistant"}, {"measurement": "sensitivity to erlotinib", "setting": "[16]", "value": "sensitive"}]}]}
